The test system of the test is Platelet. Description: Inhibition of collagen-induced human platelet aggregation after 3 mins by light transmission aggregometry. Type of test: functional, cell-based. Conditions: for IC50: 0.05 h.

Activity calls are given as the source filed them. The rule behind the calls is not given here.

As usually defined, the IC50 is the concentration that inhibits the measured activity by half.

On to `c1coc(CNc2ncnc3[nH]cnc23)c1`, for which the inhibition result was “Active”.

`OC[C@H]1O[C@@H](n2cnc3c(NCc4ccccc4)ncnc32)[C@H](O)[C@@H]1O` [N6-BENZYLADENOSINE] came in with a half-maximal inhibitory concentration (IC50) of 37.1 µM.

Take `OC[C@H]1O[C@@H](n2cnc3c(NCc4ccco4)ncnc32)[C@H](O)[C@@H]1O` [KINETIN RIBOSIDE]: half-maximal inhibition (IC50) was put at 41.2 µM.

The molecule `OC[C@H]1O[C@@H](n2cnc3c(NCc4ccc(O)cc4)ncnc32)[C@H](O)[C@@H]1O` showed an IC50 of 6.77 µM.

For the molecule `CC(C)=CCNc1ncnc2c1ncn2[C@@H]1O[C@H](CO)[C@@H](O)[C@H]1O` [RIBOPRINE], the concentration for half-maximal inhibition (IC50) was 142 µM.

The values are drawn from ChEMBL document CHEMBL3351821, “Naturally occurring N(6)-substituted adenosines (cytokinin ribosides) are in vitro inhibitors of platelet aggregation: an in silico evaluation of their interaction with the P2Y(12) receptor” (Bioorg Med Chem Lett, 2014).
